This is an account of results in PMC3322975 (The Journal of Biological Chemistry, 2012).

Sequence of Kv7.2/7.3 M-channel (O43526 whole entry): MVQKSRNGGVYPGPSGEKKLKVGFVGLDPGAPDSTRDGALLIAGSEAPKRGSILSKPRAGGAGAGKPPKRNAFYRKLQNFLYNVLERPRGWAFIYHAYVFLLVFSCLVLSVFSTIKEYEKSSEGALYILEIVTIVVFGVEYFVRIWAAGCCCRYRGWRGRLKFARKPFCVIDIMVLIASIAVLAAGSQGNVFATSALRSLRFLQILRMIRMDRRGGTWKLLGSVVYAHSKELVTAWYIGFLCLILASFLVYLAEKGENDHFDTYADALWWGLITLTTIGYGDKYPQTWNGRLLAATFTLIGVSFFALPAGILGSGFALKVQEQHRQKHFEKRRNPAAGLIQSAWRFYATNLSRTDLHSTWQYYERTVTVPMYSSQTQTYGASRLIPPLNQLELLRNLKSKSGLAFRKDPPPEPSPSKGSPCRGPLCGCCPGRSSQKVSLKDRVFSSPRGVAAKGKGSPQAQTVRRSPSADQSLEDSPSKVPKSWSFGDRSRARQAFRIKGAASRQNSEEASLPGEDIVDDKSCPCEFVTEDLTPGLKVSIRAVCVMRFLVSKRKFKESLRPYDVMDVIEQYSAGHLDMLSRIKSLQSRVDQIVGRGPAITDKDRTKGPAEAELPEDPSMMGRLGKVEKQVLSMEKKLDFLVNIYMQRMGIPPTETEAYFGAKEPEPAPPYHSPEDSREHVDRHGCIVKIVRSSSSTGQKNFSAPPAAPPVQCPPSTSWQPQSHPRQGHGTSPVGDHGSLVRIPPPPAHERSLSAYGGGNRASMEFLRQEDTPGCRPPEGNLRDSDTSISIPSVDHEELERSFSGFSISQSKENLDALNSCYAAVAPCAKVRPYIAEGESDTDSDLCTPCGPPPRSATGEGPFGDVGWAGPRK
Sequence of Kv7.2/7.3 M-channel (O43525 whole entry): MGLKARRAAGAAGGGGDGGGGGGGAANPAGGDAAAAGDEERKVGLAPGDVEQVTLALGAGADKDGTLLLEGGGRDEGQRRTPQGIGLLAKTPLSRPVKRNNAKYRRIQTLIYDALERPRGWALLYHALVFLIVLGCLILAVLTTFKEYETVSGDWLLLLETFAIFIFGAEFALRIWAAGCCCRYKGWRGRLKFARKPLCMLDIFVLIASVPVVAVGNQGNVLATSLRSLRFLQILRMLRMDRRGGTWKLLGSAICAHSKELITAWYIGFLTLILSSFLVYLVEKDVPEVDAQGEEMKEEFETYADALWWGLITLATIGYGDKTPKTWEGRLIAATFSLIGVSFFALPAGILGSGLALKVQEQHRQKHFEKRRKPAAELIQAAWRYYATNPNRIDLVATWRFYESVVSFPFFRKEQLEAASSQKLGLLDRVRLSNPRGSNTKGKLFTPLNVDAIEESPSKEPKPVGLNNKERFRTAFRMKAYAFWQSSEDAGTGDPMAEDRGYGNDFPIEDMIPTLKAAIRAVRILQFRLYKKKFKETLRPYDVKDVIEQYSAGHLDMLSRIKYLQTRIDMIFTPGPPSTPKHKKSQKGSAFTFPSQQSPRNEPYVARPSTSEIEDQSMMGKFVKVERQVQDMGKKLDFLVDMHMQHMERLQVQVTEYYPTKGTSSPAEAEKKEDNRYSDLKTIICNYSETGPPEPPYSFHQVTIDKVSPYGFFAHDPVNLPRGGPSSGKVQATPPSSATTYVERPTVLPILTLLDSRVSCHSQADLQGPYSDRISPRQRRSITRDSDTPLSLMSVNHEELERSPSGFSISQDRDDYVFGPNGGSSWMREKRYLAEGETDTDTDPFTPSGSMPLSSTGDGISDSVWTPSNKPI

This assay concerns the target Kv7.2/7.3 M-channel (Homo sapiens, UniProt O43525+O43526). As to the kind of experiment: single-channel recording, excised inside-out patch. It is filed as cell-based.
By EC50 is commonly meant the concentration at which the effect is half-maximal. A high value points to lower potency in that assay. For `CCCCCCCCc1ccc(CCC(N)(CO)COP(=O)(O)O)cc1` (stereo not drawn) [FTY720-P], the EC50 was 500 ± 1 nM.

On to `CCCCCCCC/C=C\CCCCCCCC(=O)OC[C@@H](O)COP(=O)(O)O` [LPA], for which a half-maximal effect (EC50) was put at 1500 ± 400 nM.

Take `CCCCCCCCCCCCC/C=C/[C@@H](O)[C@@H](N)COP(=O)(O)O` [S-1-P]: the EC50 was 3200 ± 600 nM.

As for `CCCCCCCC(=O)OC[C@H](COP(=O)(O)O[C@H]1[C@H](O)[C@@H](OP(=O)(O)O)[C@H](OP(=O)(O)O)[C@@H](OP(=O)(O)O)[C@H]1O)OC(=O)CCCCCCC` [diC8PI(3,4,5)P3], it took 1100 ± 200 nM to reach a half-maximal effect (EC50).

`CCCCCCCC(=O)OC[C@H](COP(=O)(O)O[C@H]1[C@H](O)[C@@H](O)[C@H](OP(=O)(O)O)[C@@H](O)[C@H]1O)OC(=O)CCCCCCC` [diC8PI(4)P] displayed a concentration for a half-maximal effect (EC50) of 1700 ± 300 nM.

`CCCCCCCC(=O)OC[C@H](COP(=O)(O)O[C@@H]1[C@H](O)[C@H](O)[C@@H](OP(=O)(O)O)[C@H](OP(=O)(O)O)[C@H]1O)OC(=O)CCCCCCC` [diC8PI(4,5)P2] showed an EC50 of 1100 ± 100 nM.
